Read-outs that look alike come from different tables or passages of the source.
What was measured:
[1] = tested on: Human U937 monocytic cells; assay: U937 IFNγ ICAM1 FACS Assay; format: cell-based
Excerpt: (§1) The activity of the compounds of the invention may additionally be characterized by assaying the effect of the 2,4-pyrimidinediamine compounds described herein on A549 lung epithelial cells and U937 cells. A549 lung epithelial cells and U937 cells up-regulate ICAM-1 (CD54) surface expression in response to a variety of different stimuli. Therefore, using ICAM-1 expression as readout, test compound effects on different signaling pathways can be assessed in the same cell type. Stimulation with IL-1β through the IL-1β receptor activates the TRAF6/NFκB pathway resulting in up-regulation of ICAM-1. IFNγ induces ICAM-1 up-regulation through activation of the JAK1/JAK2 pathway. The up-regulation of ICAM-1 can be quantified by flow cytometry across a compound dose curve and EC50 values are calculated. An exemplary assays of this type are described in greater detail in Examples 4 and 5.
(§2) Human U937 monocytic cells up-regulate ICAM-1 (CD54) surface expression in response to a variety of different stimuli. Therefore, using ICAM-1 expression as readout, compound effects on different signaling pathways can be assessed in the same cell type. IFNγ up-regulates ICAM-1 through activation of the JAK/Stat pathway. In this example, the up-regulation of ICAM-1 by IFNγ was assessed.
The U937 human monocytic cell line was obtained from ATCC of Rockville Md., catalog number CRL-1593.2, and cultured in RPM1-1640 medium containing 10% (v/v) FCS. U937 cells were grown in 10% RPMI. The cells were then plated at a concentration of 100,000 cells per 160 μL in 96 well flat bottom plates. The test compounds were then diluted as follows: 10 mM test compound was diluted 1:5 in DMSO (3 μL 10 mM test compound in 12 μL DMSO), followed by a 1:3 serial dilution of test compound in DMSO (6 μL test compound serially diluted into 12 μL DMSO to give 3-fold dilutions). Then 4 μL of test compound was transferred to 76 μL of 10% RPMI resulting in a 10× solution (100 μM test compound, 5% DMSO). For control wells, 4 μL of DMSO was diluted into 76 μL 10% RPMI.
The assay was performed in duplicate with 8 points (8 3-fold dilution concentrations from […]) and with 4 wells of DMSO only (control wells) under stimulated conditions and 4 wells of DMSO only under unstimulated conditions.
The diluted compound plate was mixed 2× using a multimek (Beckman Coulter of Brea, Calif.) and then 20 μL of the diluted compounds was transferred to the 96 well plate containing 160 μL of cells, which were then mixed again twice at low speeds. The cells and compounds were then pre-incubated for 30 minutes at 37° C. with 5% CO2.
The 10× stimulation mix was made by preparing a 100 ng/mL solution of human IFNγ in 10% RPMI. The cells and compound were then stimulated with 20 μL of IFNγ stimulation mix to give a final concentration of 10 ng/mL IFNγ, 10 μM test compound, and 0.5% DMSO. The cells were kept under conditions for stimulation for 18-24 hours at 37° C. with 5% CO2.
The cells were transferred to a 96 well round bottom plate for staining and then kept on ice for the duration of the staining procedure. Cells were spun down at 1000 rpm for 5 minutes at 4° C., following which the supernatant was removed. Following removal of the supernatant, 1 μL APC conjugated mouse anti-human ICAM-1 antibody was added per 100 μL FACS buffer. The cells were then incubated on ice in the dark for 30 minutes. Following incubation, 150 μL of FACS buffer was added and the cells were centrifuged at 1000 rpm for 5 minutes at 4° C., following which the supernatant was removed. After removal of the supernatant, 200 μL of FACS buffer was added and the cells were resuspended. After suspension, the cells were centrifuged at 1000 rpm for 5 min at 4° C. Supernatant was then removed prior to resuspension of the cells in 150 μL FACS buffer.
Detection was performed using a BD LSR I System Flow Cytometer, purchased from BD Biosciences of San Jose, Calif. […]

[2] = tested on: A549 lung epithelial cells; assay: A549 Epithelial Line Stimulated with IFNγ (ICAM-1 surface expression, FACS); format: cell-based, human; conditions: IFNγ 75 ng/mL, 24 hours, ICAM-1 (CD54) surface expression by flow cytometry; read-out: Example 4 (IC50, A549 epithelial line stimulated with IFNγ)
Excerpt: as §1
as §2, with “A549 lung epithelial” for “Human U937 monocytic”
The A549 lung epithelial carcinoma cell line originated from the American Type Culture Collection. Routine culturing was with F12K media (Mediatech Inc., Lenexa, Kans., Cat. No. 10-025-CV) with 10% fetal bovine serum, 100 I.U. penicillin and […] streptomycin (complete F12k media). Cells were incubated in a humidified atmosphere of 5% CO2 at 37° C. Prior to use in the assay, A549 cells were washed with PBS and trypsinized (Mediatech Inc., Cat. No. 25-052-CI) to lift the cells. The trypsin cell suspension was neutralized with complete F12K media and centrifuged to pellet the cells. The cell pellet was resuspended in complete F12K media at a concentration of 2.0×10^5/mL. Cells were seeded at 20,000 per well, 100 μL total volume, in a flat bottom tissue culture plate and allowed to adhere overnight.
On day two, A549 cells were pre-incubated with a 2,4-pyrimidinediamine test compound or DMSO (control) (Sigma-Aldrich, St. Louis, Mo., Catalog No. D2650) for 1 hour. The cells were then stimulated with IFNγ (75 ng/mL) (Peprotech Inc., Rocky Hill, N.J., Cat. No. 300-02) and allowed to incubate for 24 hours. The final test compound dose range was 30 μM to 14 nM in 200 μL F12K media containing 5% FBS, 0.3% DMSO.
On day three, the cell media was removed and the cells were washed with 200 μL PBS (phosphate buffered saline). Each well was trypsinized to dissociate the cells, then neutralized by addition of 200 μL complete F12K media. Cells were pelleted and stained with an APC conjugated mouse anti-human ICAM-1 (CD54) (BD Pharmingen, San Diego, Calif., Catalog #559771) antibody for 20 minutes at 4° C. Cells were washed with ice cold FACS buffer (PBS+2% FBS) and surface ICAM-1 expression was analyzed by flow cytometry. Detection was performed using a BD LSR I System Flow Cytometer, purchased from BD Biosciences of San Jose, Calif. Events were gated for live scatter and the geometric mean was calculated (Becton-Dickinson CellQuest software version 3.3, Franklin Lakes, N.J.). Geometric means were plotted against the compound concentration to generate a dose response curve.

[3] = Homo sapiens, U-937, IFNγ 10 ng/mL, 18-24 hours, ICAM-1 expression by flow cytometry, read-out: Example 5 (IC50, U937 IFNγ ICAM1 FACS assay)
[4] = IFNγ 10 ng/mL, 18-24 hours, ICAM-1 expression by flow cytometry, read-out: Example 5 (IC50, U937 IFNγ ICAM1 FACS assay)

SMILES | IC50 [2] [nM] | IC50 [1, 4] [nM] | other results
Cc1cnc(Nc2ccc(S(N)(=O)=O)cc2)nc1Nc1ccc2c(c1)C(NS(C)(=O)=O)CC2 (racemic) [VI-2, (+/−)-N2-(4-Aminosulfonylphenyl)-5-methyl-N4-[1-(methylsulfonyl)aminoindan-6-yl]-2,4-pyrimidinediamine] | – | – | IC50 [1, 3]: 2580 nM
N#CCOc1ccc(Nc2nc(Nc3cccc(CS(N)(=O)=O)c3)ncc2F)cc1 [Compound I-1, N2-[3-(Aminosulfonylmethylene)phenyl]-5-fluoro-N4-(4-cyanomethyleneoxyphenyl)-2,4-pyrimidinediamine] | 3070 | 554 | –
CCS(=O)(=O)NCc1ccc(Nc2nc(Nc3ccc(CS(=O)(=O)NC)cc3)ncc2C)cc1 [Compound I-2, N4-(4-ethylsulfonylaminomethyl)phenyl-5-methyl-N2-(4-methylaminosulfonylmethyl)phenyl-2,4-pyrimidinediamine] | 1740 | 133 | –
CNS(=O)(=O)Cc1ccc(Nc2ncc(F)c(Nc3ccc(CNS(=O)(=O)C4CC4)cc3)n2)cc1 [Compound I-8, N4-(4-cyclopropylsulfonylaminomethyl)phenyl-5-fluoro-N2-(4-methylaminosulfonylmethyl)phenyl-2,4-pyrimidinediamine] | 3890 | 347 | –
CCS(=O)(=O)NCc1ccc(Nc2nc(Nc3ccc(CS(=O)(=O)NC)cc3)ncc2F)cc1 [Compound I-10, N4-(4-ethylsulfonylaminomethyl)phenyl-5-fluoro-N2-(4-methylaminosulfonylmethyl)phenyl-2,4-pyrimidinediamine] | – | 469 | –
Cc1cnc(Nc2ccc(CNS(=O)(=O)C3CC3)cc2)nc1Nc1ccc(CNS(=O)(=O)C2CC2)cc1 [II-1, N2,N4-bis(4-cyclopropylsulfonylaminomethyl)phenyl-5-methyl-2,4-pyrimidinediamine] | 6230 | 71.3 | –
Cc1cnc(Nc2ccc(CCNS(=O)(=O)C3CC3)cc2)nc1Nc1ccc(CCNS(=O)(=O)C2CC2)cc1 [II-2, N2,N4-bis[4-(2-cyclopropylsulfonylamino)ethyl]phenyl-5-methyl-2,4-pyrimidine diamine] | – | 991 | –
COc1cc(Nc2nc(Nc3ccc4c(c3)CN(S(N)(=O)=O)CC4)ncc2F)ccc1Cl [III-1, N2-(2-Aminosulfonyl-1,2,3,4-tetrahydroisoquinolin-7-yl)-N4-(4-chloro-3-methoxyphenyl)-5-fluoro-2,4-pyrimidinediamine] | – | – | IC50 [1, 3]: 1080 nM
NS(=O)(=O)N1CCc2ccc(Nc3ncc(F)c(Nc4ccc(CNS(=O)(=O)C5CC5)cc4)n3)cc2C1 [III-2, N2-(2-Aminosulfonyl-1,2,3,4-tetrahydroisoquinolin-7-yl)-N4-[4-(cyclopropylsulfonylaminomethyl)phenyl]-5-fluoro-2,4-pyrimidinediamine] | – | – | IC50 [1, 3]: 164 nM
C#CCOc1ccc(Nc2nc(Nc3ccc4c(c3)CN(S(N)(=O)=O)CC4)ncc2F)cc1 [III-4, N2-(2-Aminosulfonyl-1,2,3,4-tetrahydroisoquinolin-7-yl)-N4-(4-(prop-2-ynyloxy)phenyl)-5-fluoro-2,4-pyrimidinediamine] | – | – | IC50 ([1]; Homo sapiens, U-937, read-out: Example 5 (IC50, U937 IFNγ ICAM1 FACS assay)): 462 nM
CC1(C)Oc2cc(Nc3nc(Nc4cccc(CS(N)(=O)=O)c4)ncc3F)cnc2NC1=O [IV-1, N2-[3-(Aminosulfonylmethylene)phenyl]-N4-[2,2-dimethyl-3-oxo-4H-pyrid[1,4]oxazin-7-yl]-5-fluoro-2,4-pyrimidinediamine] | – | 18600 | –
CN1C(=O)C(C)(C)Oc2cc(Nc3nc(Nc4cccc(CS(N)(=O)=O)c4)ncc3F)cnc21 [IV-2, N2-[3-(Aminosulfonylmethylene)phenyl]-N4-[2,2-dimethyl-3-oxo-4-methyl-pyrid[1,4]oxazin-7-yl]-5-fluoro-2,4-pyrimidinediamine] | 3500 | – | –

From patent US8729087B2, “Compositions and methods for inhibition of the JAK pathway” (Rigel Pharmaceuticals, Inc., priority 2006, dated 2014)
